Experimental data published in publication PMC7486443, “Generation of Phenothiazine with Potent Anti-TLK1 Activity for Prostate Cancer Therapy” (iScience, 2020).

Assays:
Assay in all cases: biochemical
Set-up in all cases: DiscoverX KINOMEscan scanMAX competition binding panel, single concentration, percent of control; remaining binding: dose or concentration left out as unconfirmed
Details in all cases: KINOMEscan binding, percent of control; read-out: Table S4_SCANMAX REPORT - related to Fig. 1 / Percent Control
[1] = target: FLT3(ITD,F691L) (Homo sapiens, UniProt P36888, F691L/ITD)
[2] = target: PRKD1 (Homo sapiens, UniProt Q15139)
[3] = target: MAP4K2 (Homo sapiens, UniProt Q12851)
[4] = target: BRAF (Homo sapiens, UniProt P15056)
Chain of BRAF (P15056 whole entry): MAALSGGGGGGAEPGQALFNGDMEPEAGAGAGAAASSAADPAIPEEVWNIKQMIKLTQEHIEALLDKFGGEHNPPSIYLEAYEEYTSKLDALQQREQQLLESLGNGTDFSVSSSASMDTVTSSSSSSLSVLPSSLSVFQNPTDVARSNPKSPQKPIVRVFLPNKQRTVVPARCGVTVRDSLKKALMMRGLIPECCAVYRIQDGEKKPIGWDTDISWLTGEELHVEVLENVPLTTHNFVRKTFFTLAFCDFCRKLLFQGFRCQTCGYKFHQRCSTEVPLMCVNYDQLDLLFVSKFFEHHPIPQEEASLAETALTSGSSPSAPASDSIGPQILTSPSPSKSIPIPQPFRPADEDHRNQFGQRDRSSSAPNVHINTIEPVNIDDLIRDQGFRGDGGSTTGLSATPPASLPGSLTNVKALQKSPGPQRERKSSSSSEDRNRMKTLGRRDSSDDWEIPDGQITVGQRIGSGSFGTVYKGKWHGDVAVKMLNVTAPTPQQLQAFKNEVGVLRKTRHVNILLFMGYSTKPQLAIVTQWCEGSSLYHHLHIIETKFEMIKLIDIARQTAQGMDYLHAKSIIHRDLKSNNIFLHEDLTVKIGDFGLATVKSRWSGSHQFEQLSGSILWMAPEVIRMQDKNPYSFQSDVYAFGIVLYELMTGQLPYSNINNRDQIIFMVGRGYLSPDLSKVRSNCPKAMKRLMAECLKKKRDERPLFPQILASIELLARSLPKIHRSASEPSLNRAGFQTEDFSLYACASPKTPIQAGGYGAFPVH

[5] = target: PKNB(M.tuberculosis) (Mycobacterium tuberculosis, UniProt P9WI81)
Chain of PKNB(M.tuberculosis) (P9WI81 whole entry): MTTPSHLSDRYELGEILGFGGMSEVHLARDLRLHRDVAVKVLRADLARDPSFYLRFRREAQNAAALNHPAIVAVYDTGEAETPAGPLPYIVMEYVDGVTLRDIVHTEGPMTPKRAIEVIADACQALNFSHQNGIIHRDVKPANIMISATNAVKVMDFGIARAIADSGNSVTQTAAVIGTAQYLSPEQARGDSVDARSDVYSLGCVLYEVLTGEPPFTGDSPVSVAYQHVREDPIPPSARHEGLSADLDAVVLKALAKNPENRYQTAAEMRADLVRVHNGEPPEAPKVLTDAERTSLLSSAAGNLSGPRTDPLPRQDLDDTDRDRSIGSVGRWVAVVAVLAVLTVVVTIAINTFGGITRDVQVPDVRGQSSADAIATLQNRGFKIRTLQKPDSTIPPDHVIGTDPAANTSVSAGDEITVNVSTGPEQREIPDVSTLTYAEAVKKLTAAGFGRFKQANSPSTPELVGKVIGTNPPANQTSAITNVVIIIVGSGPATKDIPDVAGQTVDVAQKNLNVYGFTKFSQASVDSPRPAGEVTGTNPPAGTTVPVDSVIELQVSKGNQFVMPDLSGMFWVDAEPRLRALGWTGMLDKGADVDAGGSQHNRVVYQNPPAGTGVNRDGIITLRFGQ

[6] = target: CAMK1G (Homo sapiens, UniProt Q96NX5)
[7] = target: T1, FAK (Homo sapiens, UniProt Q05397)
T1 construct: gene PTK2
T1 sequence (Q05397 whole entry): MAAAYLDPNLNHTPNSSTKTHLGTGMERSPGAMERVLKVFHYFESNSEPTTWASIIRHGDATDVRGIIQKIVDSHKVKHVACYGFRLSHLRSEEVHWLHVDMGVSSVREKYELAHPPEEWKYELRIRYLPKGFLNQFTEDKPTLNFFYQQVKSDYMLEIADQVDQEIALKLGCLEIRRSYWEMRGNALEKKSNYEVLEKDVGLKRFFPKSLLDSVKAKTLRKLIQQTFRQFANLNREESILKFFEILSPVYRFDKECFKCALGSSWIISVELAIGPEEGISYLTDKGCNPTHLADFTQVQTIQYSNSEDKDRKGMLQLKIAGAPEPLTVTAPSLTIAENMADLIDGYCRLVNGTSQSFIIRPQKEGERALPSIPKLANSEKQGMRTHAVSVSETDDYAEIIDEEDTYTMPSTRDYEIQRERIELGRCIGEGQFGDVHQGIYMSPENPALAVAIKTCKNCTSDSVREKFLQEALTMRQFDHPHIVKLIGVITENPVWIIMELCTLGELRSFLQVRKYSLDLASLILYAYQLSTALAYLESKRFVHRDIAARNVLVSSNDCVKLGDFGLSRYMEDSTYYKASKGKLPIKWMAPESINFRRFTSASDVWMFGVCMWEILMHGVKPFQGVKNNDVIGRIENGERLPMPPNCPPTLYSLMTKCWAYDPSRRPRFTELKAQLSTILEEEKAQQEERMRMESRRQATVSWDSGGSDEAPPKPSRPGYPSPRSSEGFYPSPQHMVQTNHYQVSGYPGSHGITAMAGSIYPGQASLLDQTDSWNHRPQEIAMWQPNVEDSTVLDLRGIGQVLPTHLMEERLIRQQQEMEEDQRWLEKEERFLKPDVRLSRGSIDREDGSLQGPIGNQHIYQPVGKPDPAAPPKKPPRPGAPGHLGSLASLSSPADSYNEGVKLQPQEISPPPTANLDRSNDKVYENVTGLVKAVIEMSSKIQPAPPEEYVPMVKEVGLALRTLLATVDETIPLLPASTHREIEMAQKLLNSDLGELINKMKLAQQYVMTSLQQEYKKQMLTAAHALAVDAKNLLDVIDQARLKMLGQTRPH

[8] = target: T2, QSK (Homo sapiens, UniProt Q9Y2K2)
T2 construct: gene SIK3
T2 sequence (Q9Y2K2 whole entry): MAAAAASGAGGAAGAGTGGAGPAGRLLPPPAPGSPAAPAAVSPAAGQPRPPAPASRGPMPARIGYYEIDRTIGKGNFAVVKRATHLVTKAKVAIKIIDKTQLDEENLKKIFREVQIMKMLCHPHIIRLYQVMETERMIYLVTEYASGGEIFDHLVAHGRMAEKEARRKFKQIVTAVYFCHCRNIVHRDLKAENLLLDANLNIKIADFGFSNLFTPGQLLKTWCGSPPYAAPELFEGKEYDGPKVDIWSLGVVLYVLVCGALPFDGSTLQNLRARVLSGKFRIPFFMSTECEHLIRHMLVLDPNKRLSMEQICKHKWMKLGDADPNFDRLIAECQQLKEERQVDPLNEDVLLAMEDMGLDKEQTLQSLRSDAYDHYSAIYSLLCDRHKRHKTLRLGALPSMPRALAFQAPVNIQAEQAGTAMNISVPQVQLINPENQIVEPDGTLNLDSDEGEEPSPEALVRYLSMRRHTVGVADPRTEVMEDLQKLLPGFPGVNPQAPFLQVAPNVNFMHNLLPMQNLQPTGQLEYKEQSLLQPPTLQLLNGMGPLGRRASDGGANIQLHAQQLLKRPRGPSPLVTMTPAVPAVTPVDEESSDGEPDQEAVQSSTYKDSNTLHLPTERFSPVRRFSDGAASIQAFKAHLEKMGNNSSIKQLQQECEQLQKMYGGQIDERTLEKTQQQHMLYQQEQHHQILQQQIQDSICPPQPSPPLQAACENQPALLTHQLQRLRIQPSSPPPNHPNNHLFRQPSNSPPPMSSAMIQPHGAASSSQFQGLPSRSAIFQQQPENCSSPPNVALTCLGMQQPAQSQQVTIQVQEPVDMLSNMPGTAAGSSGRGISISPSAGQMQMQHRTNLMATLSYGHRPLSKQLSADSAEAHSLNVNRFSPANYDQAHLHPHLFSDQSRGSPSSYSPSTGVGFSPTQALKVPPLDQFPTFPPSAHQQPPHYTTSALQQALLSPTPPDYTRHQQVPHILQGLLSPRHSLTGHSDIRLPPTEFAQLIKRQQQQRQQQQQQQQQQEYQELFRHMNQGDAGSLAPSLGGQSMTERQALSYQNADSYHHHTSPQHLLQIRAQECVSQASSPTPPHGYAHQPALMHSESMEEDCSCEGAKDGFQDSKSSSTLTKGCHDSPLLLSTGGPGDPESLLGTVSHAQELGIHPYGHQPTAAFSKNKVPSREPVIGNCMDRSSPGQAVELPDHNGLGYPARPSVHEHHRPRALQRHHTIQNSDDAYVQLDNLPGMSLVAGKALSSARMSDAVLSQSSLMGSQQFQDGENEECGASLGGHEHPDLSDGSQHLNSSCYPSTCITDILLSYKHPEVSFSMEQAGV

[9] = target: T3, MINK (Homo sapiens, UniProt Q8N4C8)
T3 construct: gene MINK1

[10] = target: CSNK2A2 (Homo sapiens, UniProt P19784)
[11] = target: FLT3(K663Q) (Homo sapiens, UniProt P36888, K663Q)
[12] = target: HIPK4 (Homo sapiens, UniProt Q8NE63)
[13] = target: T4, MEK3 (Homo sapiens, UniProt P46734)
T4 construct: gene MAP2K3

[14] = target: T5, DCAMKL2 (Homo sapiens, UniProt Q8N568)
T5 construct: gene DCLK2

[15] = target: CSNK1E (Homo sapiens, UniProt P49674)
[16] = target: T6, MRCKA (Homo sapiens, UniProt Q5VT25)
T6 construct: gene CDC42BPA

[17] = target: T7, AMPK-alpha2 (Homo sapiens, UniProt P54646)
T7 construct: gene PRKAA2
T7 sequence (P54646 whole entry): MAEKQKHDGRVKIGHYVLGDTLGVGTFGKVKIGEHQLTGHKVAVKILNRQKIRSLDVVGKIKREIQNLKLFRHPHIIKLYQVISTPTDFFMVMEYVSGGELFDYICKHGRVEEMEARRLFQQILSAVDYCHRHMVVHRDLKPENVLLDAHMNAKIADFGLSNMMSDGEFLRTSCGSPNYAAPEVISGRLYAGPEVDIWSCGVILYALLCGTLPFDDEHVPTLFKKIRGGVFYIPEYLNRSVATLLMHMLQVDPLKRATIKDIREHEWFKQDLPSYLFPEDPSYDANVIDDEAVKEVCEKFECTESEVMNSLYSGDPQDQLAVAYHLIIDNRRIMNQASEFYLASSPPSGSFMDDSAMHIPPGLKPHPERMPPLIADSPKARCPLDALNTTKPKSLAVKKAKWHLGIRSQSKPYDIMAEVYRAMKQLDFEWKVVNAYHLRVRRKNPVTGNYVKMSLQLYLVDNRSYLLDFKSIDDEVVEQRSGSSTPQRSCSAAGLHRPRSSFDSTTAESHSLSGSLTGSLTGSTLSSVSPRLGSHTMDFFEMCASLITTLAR

[18] = target: T8, IKK-epsilon (Homo sapiens, UniProt Q14164)
T8 construct: gene IKBKE
T8 sequence (Q14164 whole entry): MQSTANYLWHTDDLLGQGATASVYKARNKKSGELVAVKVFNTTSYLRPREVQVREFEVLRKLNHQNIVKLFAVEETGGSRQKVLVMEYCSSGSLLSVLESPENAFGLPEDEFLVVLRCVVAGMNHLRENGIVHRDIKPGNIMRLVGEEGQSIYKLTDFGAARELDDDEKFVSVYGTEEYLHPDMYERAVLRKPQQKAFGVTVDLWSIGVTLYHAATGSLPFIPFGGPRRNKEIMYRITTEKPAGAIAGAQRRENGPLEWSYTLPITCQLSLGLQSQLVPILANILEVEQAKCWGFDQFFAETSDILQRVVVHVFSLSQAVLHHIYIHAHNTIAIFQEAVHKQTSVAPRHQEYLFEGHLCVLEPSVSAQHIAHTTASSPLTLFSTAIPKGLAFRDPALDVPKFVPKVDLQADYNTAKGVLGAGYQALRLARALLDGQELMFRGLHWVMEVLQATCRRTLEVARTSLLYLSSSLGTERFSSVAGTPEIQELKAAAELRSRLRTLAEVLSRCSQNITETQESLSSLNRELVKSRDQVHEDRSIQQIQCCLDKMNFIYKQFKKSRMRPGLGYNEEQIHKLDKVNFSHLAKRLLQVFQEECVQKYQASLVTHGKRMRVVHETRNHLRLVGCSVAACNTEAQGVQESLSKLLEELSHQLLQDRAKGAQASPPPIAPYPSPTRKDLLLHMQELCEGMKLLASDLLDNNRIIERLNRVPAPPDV

`c1ccc2c(c1)Sc1ccccc1N2CCN1CCOCC1` [J54] was tested, and the remaining binding [1] was 65%, the remaining binding [2] was 97% and the remaining binding [3] was 100%. It also gave a remaining binding [4] of 100%, a remaining binding [5] of 87% and a remaining binding [6] of 100%. It also gave a remaining binding [7] of 92%, a remaining binding [8] of 100% and a remaining binding [9] of 100%. It also gave a remaining binding [10] of 77%, a remaining binding [11] of 94% and a remaining binding [12] of 90%. For the same molecule, the remaining binding [13] was 100%, the remaining binding [14] was 100% and the remaining binding [15] was 100%. For the same molecule, the remaining binding [16] was 99%, the remaining binding [17] was 100% and the remaining binding [18] was 75%.
